According to patent US6838557B1, “Process for making a chelating agent for labeling biomolecules using preformed active esters” (Board of Regents The University of Texas System, priority 2002, dated 2005):

Assay: Stability of DOTA mono-NHS in water by 1H NMR (rate of change in the ratio Afree/Abound)
Assay type: physicochemical
Settings: neutral pH, read-out: half-life for hydrolysis
From the text: For example, ^1H NMR spectra, such as that illustrated in FIG. 1, were used to measure the ratio of the areas (Afree/Abound) of the ^1H NMR signal corresponding to NHS free in solution (δfree −2.6 ppm; Free NHS), relative to the signal corresponding to NHS covalently bound to DOTA (δbound −2.85 ppm; Bound NHS). […] Similar results were obtained by measuring the relative areas of the ^13C signals corresponding to free and bound NHS (δbound −25.5 ppm and δfree −25.2 ppm; FIG. 2).
Similar to that described above, the NMR data was used to estimate the percentage of free NHS. […] The stability of DOTA mono-NHS in water was also assessed using ^1H NMR by measuring the rate of change in the ratio Afree/Abound at neutral pH.

In the case of `O=C(O)CN1CCN(CC(=O)O)CCN(CC(=O)ON2C(=O)CCC2=O)CCN(CC(=O)O)CC1` [DOTA mono-NHS, 1,4,7,10-tetraazacyclododecane-1,4,7,10-tetra(aceticacid)-10-mono(N-hydroxysuccinimidyl ester)], the half-life is reported as roughly 30 min.
